# Laboratory results reported in patent US20240398757A1 (COCRYSTAL PHARMA, INC., priority 2022, published 2024).
# Biological target: T1, SARS2 protease (Severe acute respiratory syndrome coronavirus 2, UniProt P0DTD1)
# T1 construct: SARS2 protease was added to a final concentration of 30 nM
# Assay: SARS-CoV-2 protease inhibition assay (SARS2 FRET protease assay)
# Type: biochemical
# Details: IC50 (μM), SARS2 protease 30 nM, peptide substrate 1.3 μM, 120 minutes at 37° C., compounds 20 μM to 0.075 nM
row,SMILES,IC50
1,"CCNC(=O)C(=O)[C@H](C[C@@H]1CCNC1=O)NC(=O)[C@H](Cc1ccccc1)NC(=O)OC(C1CCCCC1)C(F)(F)c1cccc(Cl)c1 (stereo partly drawn) [Compound A255, 2-(3-Chlorophenyl)-1-cyclohexyl-2,2-difluoroethyl ((S)-1-(((S)-4-(ethylamino)-3,4-dioxo-1-((S)-2-oxopyrrolidin-3-yl)butan-2-yl)amino)-1-oxo-3-phenylpropan-2-yl)carbamate]",208 nM
2,"CCCC[C@H](NC(=O)OC(c1ccncc1)C(F)(F)c1cccc(Cl)c1)C(=O)N[C@H](C=O)C[C@@H]1CCNC1=O (stereo partly drawn) [Compound A256, 2-(3-Chlorophenyl)-2,2-difluoro-1-(pyridin-4-yl)ethyl ((S)-1-oxo-1-(((S)-1-oxo-3-((S)-2-oxopyrrolidin-3-yl)propan-2-yl)amino)hexan-2-yl)carbamate]",1 nM
3,"CCCC[C@H](NC(=O)OC(c1ccncc1)C(F)(F)c1cccc(Cl)c1)C(=O)N[C@@H](C[C@@H]1CCNC1=O)C(=O)C(=O)NC1CC1 (stereo partly drawn) [Compound A257, 2-(3-Chlorophenyl)-2,2-difluoro-1-(pyridin-4-yl)ethyl ((S)-1-(((S)-4-(cyclopropylamino)-3,4-dioxo-1-((S)-2-oxopyrrolidin-3-yl)butan-2-yl)amino)-1-oxohexan-2-yl)carbamate]",0.1 nM
4,"CCCC[C@H](NC(=O)CC(O)(Cc1cccc(Cl)c1)c1ccccc1)C(=O)N[C@@H](C[C@@H]1CCNC1=O)C(=O)C(=O)NCC (stereo partly drawn) [Compound A259, (2S)-2-(4-(3-chlorophenyl)-3-hydroxy-3-phenylbutanamido)-N—((S)-4-(ethylamino)-3,4-dioxo-1-((S)-2-oxopyrrolidin-3-yl)butan-2-yl)hexanamide]",413 nM
5,"CCCC[C@H](NC(=O)CC(O)(c1ccccc1)C(C)(C)c1cccc(Cl)c1)C(=O)N[C@H](C=O)C[C@@H]1CCNC1=O (stereo partly drawn) [Compound A260, (2S)-2-(4-(3-chlorophenyl)-3-hydroxy-4-methyl-3-phenylpentanamido)-N—((S)-1-oxo-3-((S)-2-oxopyrrolidin-3-yl)propan-2-yl)hexanamide]",2 nM
6,"CCCC[C@H](NC(=O)CC(O)(c1ccccc1)C(C)(C)c1cccc(Cl)c1)C(=O)N[C@@H](C[C@@H]1CCNC1=O)C(=O)C(=O)NCC (stereo partly drawn) [Compound A261, (2S)-2-(4-(3-chlorophenyl)-3-hydroxy-4-methyl-3-phenylpentanamido)-N—((S)-4-(ethylamino)-3,4-dioxo-1-((S)-2-oxopyrrolidin-3-yl)butan-2-yl)hexanamide]",1090 nM
7,"O=C[C@H](C[C@@H]1CCNC1=O)NC(=O)[C@H](Cc1ccc(Cl)cc1)NC(=O)OC(c1ccccc1)C(F)(F)c1cccc(Cl)c1 (stereo partly drawn) [Compound A262, 2-(3-chlorophenyl)-2,2-difluoro-1-phenylethyl ((S)-3-(4-chlorophenyl)-1-oxo-1-(((S)-1-oxo-3-((S)-2-oxopyrrolidin-3-yl)propan-2-yl)amino)propan-2-yl)carbamate]",203 nM
8,"CCNC(=O)C(=O)[C@H](C[C@@H]1CCNC1=O)NC(=O)[C@H](Cc1ccc(Cl)cc1)NC(=O)OC(c1ccccc1)C(F)(F)c1cccc(Cl)c1 (stereo partly drawn) [Compound A263, 2-(3-chlorophenyl)-2,2-difluoro-1-phenylethyl ((S)-3-(4-chlorophenyl)-1-(((S)-4-(ethylamino)-3,4-dioxo-1-((S)-2-oxopyrrolidin-3-yl)butan-2-yl)amino)-1-oxopropan-2-yl)carbamate]",7020 nM
9,"CC(C)C(OC(=O)N[C@@H](Cc1ccccc1)C(=O)N[C@H](C=O)C[C@@H]1CCNC1=O)C(F)(F)c1cccc(Cl)c1 (stereo partly drawn) [Compound A266, 1-(3-Chlorophenyl)-1,1-difluoro-3-methylbutan-2-yl ((S)-1-oxo-1-(((S)-1-oxo-3-((S)-2-oxopyrrolidin-3-yl)propan-2-yl)amino)-3-phenylpropan-2-yl)carbamate]",0.1 nM
10,"CCCC[C@H](NC(=O)O[C@@H](c1cccnc1)C(F)(F)c1cccc(Cl)c1)C(=O)N[C@H](C=O)C[C@@H]1CCNC1=O [Compound A267, (S)-2-(3-chlorophenyl)-2,2-difluoro-1-(pyridin-3-yl)ethyl ((S)-1-oxo-1-(((S)-1-oxo-3-((S)-2-oxopyrrolidin-3-yl)propan-2-yl)amino)hexan-2-yl)carbamate]",9 nM
11,"CCCC[C@H](NC(=O)O[C@H](c1cccnc1)C(F)(F)c1cccc(Cl)c1)C(=O)N[C@H](C=O)C[C@@H]1CCNC1=O [Compound A268, (R)-2-(3-chlorophenyl)-2,2-difluoro-1-(pyridin-3-yl)ethyl ((S)-1-oxo-1-(((S)-1-oxo-3-((S)-2-oxopyrrolidin-3-yl)propan-2-yl)amino)hexan-2-yl)carbamate]",0.08 nM
12,"CCCC[C@H](NC(=O)OC(c1ccccc1)C(F)(F)c1cccc(Cl)c1)C(=O)N[C@@H](C[C@@H]1CCNC1=O)C(=O)c1nc2ccccc2o1 (stereo partly drawn) [Compound A269, 2-(3-chlorophenyl)-2,2-difluoro-1-phenylethyl ((S)-1-(((S)-1-(benzo[d]oxazol-2-yl)-1-oxo-3-((S)-2-oxopyrrolidin-3-yl)propan-2-yl)amino)-1-oxohexan-2-yl)carbamate]",418 nM
13,CCCC[C@H](NC(=O)OC(c1ccccc1)C(F)(F)c1cccc(Cl)c1)C(=O)N[C@@H](C[C@@H]1CCNC1=O)C(=O)C(=O)NCCN(CC)CC (stereo partly drawn) [Compound A271],936 nM
14,"CC(C)C[C@H](NC(=O)O[C@@H](C(C)C)C(F)(F)c1cccc(-c2ccccc2)c1)C(=O)N[C@H](C=O)C[C@@H]1CCNC1=O [Compound A272, (S)-1-([1,1′-biphenyl]-3-yl)-1,1-difluoro-3-methylbutan-2-yl ((S)-4-methyl-1-oxo-1-(((S)-1-oxo-3-((S)-2-oxopyrrolidin-3-yl)propan-2-yl)amino)pentan-2-yl)carbamate]",1 nM
15,"CC(C)C[C@H](NC(=O)O[C@@H](c1ccccc1)C(F)(F)c1cccc(C(C)C)c1)C(=O)N[C@H](C=O)C[C@@H]1CCNC1=O [Compound A275, (S)-2,2-difluoro-2-(3-isopropylphenyl)-1-phenylethyl ((S)-4-methyl-1-oxo-1-(((S)-1-oxo-3-((S)-2-oxopyrrolidin-3-yl)propan-2-yl)amino)pentan-2-yl)carbamate]",1 nM
16,"CCNC(=O)C(=O)[C@H](C[C@@H]1CCNC1=O)NC(=O)[C@H](Cc1ccccc1)NC(=O)OCCCc1ccccc1 [Compound A276, 3-Phenylpropyl ((S)-1-(((S)-4-(ethylamino)-3,4-dioxo-1-((S)-2-oxopyrrolidin-3-yl)butan-2-yl)amino)-1-oxo-3-phenylpropan-2-yl) carbamate]",4150 nM
17,"O=C[C@H](C[C@@H]1CCNC1=O)NC(=O)[C@H](Cc1ccccc1)NC(=O)OCCCc1ccccc1 [Compound A277, 3-Phenylpropyl ((S)-1-oxo-1-(((S)-1-oxo-3-((S)-2-oxopyrrolidin-3-yl)propan-2-yl)amino)-3-phenylpropan-2-yl) carbamate]",218 nM
18,"O=C(N[C@@H](CC1CCCCC1)C(=O)N[C@@H](C[C@@H]1CCNC1=O)C(=O)c1nc2ccccc2o1)OC(c1ccccc1)C(F)(F)c1cccc(Cl)c1 (stereo partly drawn) [Compound A278, 2-(3-chlorophenyl)-2,2-difluoro-1-phenylethyl ((S)-1-(((S)-1-(benzo[d]oxazol-2-yl)-1-oxo-3-((S)-2-oxopyrrolidin-3-yl)propan-2-yl)amino)-3-cyclohexyl-1-oxopropan-2-yl)carbamate]",249 nM
19,"CC(C)(c1cccc(Cl)c1)C(OC(=O)N[C@@H](Cc1ccc(Cl)c(Cl)c1)C(=O)N[C@H](C=O)C[C@@H]1CCNC1=O)c1ccccc1 (stereo partly drawn) [Compound A279, 2-(3-chlorophenyl)-2-methyl-1-phenylpropyl ((S)-3-(3,4-dichlorophenyl)-1-oxo-1-(((S)-1-oxo-3-((S)-2-oxopyrrolidin-3-yl)propan-2-yl)amino)propan-2-yl)carbamate]",423 nM
20,"CCNC(=O)C(=O)[C@H](C[C@@H]1CCNC1=O)NC(=O)[C@H](Cc1ccc(Cl)c(Cl)c1)NC(=O)OC(c1ccccc1)C(C)(C)c1cccc(Cl)c1 (stereo partly drawn) [Compound A280, 2-(3-chlorophenyl)-2-methyl-1-phenylpropyl ((S)-3-(3,4-dichlorophenyl)-1-(((S)-4-(ethylamino)-3,4-dioxo-1-((S)-2-oxopyrrolidin-3-yl)butan-2-yl)amino)-1-oxopropan-2-yl)carbamate]",4500 nM
21,"CCC1(C[C@H](NC(=O)OC(c2ccccc2)C(F)(F)c2cccc(Cl)c2)C(=O)N[C@@H](C[C@@H]2CCNC2=O)C(=O)C(=O)NC2CC2)CC1 (stereo partly drawn) [Compound A281, 2-(3-chlorophenyl)-2,2-difluoro-1-phenylethyl ((S)-1-(((S)-4-(cyclopropylamino)-3,4-dioxo-1-((S)-2-oxopyrrolidin-3-yl)butan-2-yl)amino)-3-(1-ethylcyclopropyl)-1-oxopropan-2-yl)carbamate]",1 nM
22,"CC(C)C[C@H](NC(=O)O[C@@H](c1ccccc1)C(F)(F)c1cccc(Cl)c1)C(=O)N[C@@H](C[C@@H]1CCNC1=O)C(=O)C(N)=O [Compound A282, (S)-2-(3-chlorophenyl)-2,2-difluoro-1-phenylethyl ((S)-1-(((S)-4-amino-3,4-dioxo-1-((S)-2-oxopyrrolidin-3-yl)butan-2-yl)amino)-4-methyl-1-oxopentan-2-yl)carbamate]",1 nM
23,"CCCC[C@H](NC(=O)O[C@@H](c1ccccc1)C(F)(F)c1cccc(F)c1)C(=O)N[C@@H](C[C@@H]1CCNC1=O)C(=O)C(=O)NCC [Compound A283, (S)-2,2-difluoro-2-(3-fluorophenyl)-1-phenylethyl ((S)-1-(((S)-4-(ethylamino)-3,4-dioxo-1-((S)-2-oxopyrrolidin-3-yl)butan-2-yl)amino)-1-oxohexan-2-yl)carbamate]",122 nM
24,"CCCC[C@H](NC(=O)O[C@H](c1ccccc1)C(F)(F)c1cccc(F)c1)C(=O)N[C@@H](C[C@@H]1CCNC1=O)C(=O)C(=O)NCC [Compound A284, (R)-2,2-difluoro-2-(3-fluorophenyl)-1-phenylethyl ((S)-1-(((S)-4-(ethylamino)-3,4-dioxo-1-((S)-2-oxopyrrolidin-3-yl)butan-2-yl)amino)-1-oxohexan-2-yl)carbamate]",8 nM
